Entries after “also recorded” stand apart in the source; their conditions may differ.
Tested on: E. coli JW3193 ΔNanT expressing PmSiaT
Experiment: Growth of E. coli JW3193 ΔNanT expressing PmSiaT
Type: cell-based, Escherichia coli
Conditions: for effect on growth on sialic acid: 0.5 mM sialic acid + 1 mM inhibitor; for growth with inhibitor as only carbon source: 1 mM inhibitor
From the text: To further investigate bacterial growth inhibition, we employed a model system of E. coli JW3193 ΔNanT expressing the SaSiaT and PmSiaT transporters. We designed these experiments to test if compounds 3e and 3f could inhibit the Neu5Ac transport in vivo because, without an active sialic acid transporter, E. coli JW3193 ΔNanT cannot grow on Neu5Ac.[16],[21]
For the bacterial growth experiments, the pJ422-01 plasmid containing the relevant SiaT or NanT gene was transformed into the E. coli JW3193 ΔnanT strain.[21] Throughout the experiments, strains containing the pJ422-01 plasmid were grown in media supplemented with 25 μg/mL Zeocin. E. coli BW25113, empty E. coli JW3193, and E. coli JW3193 with pJ422-01 containing the NanT gene were also used as controls. Strains were initially plated out from glycerol stocks before a single colony was picked and grown overnight in low salt LB media at 37 °C, with shaking at 180 rpm. Overnight cultures were diluted to an OD600 of 0.05 using low salt LB [supplemented with 1 mM isopropyl β-D-1-thiogalactopyranoside (IPTG)], before they were incubated at 37 °C, with shaking at 250 rpm, until they reached an OD600 of 0.3. At this point, 5 mL of each culture was centrifuged at 6000g for 5 min at 25 °C. The supernatants were removed and the cell pellets were resuspended in 5 mL of M9 MM without glucose prior to being centrifuged again at 6000g for 5 min at 25 °C. This wash step was repeated twice more before cells were resuspended to an OD600 of 0.5 in M9 MM without glucose. A Corning Costar Flat Bottom 96 Well TC-treated microplate was set up with 180 μL of M9 MM containing 1 mM IPTG (for the pJ422-01 strains) and either 5 mM glucose, 0.5 mM sialic acid, and 0.5 mM sialic acid with 1 mM of either inhibitor, or 1 mM of either inhibitor as a carbon source. To the 180 μL of media, 20 μL of each culture were added to the plate (OD600 of 0.05), before it was loaded into a FLUOstar Omega microplate reader (BMG Labtech). Growth was recorded at 600 nm every 10 min at 37 °C, with shaking at 300 rpm. Growth curves represent the mean and standard deviation of measurement from triplicate measurements (glucose/no carbon source in duplicate).
Fig. S5. Growth of E. coli JW3193 ΔNanT expressing the SaSiaT and PmSiaT transporters from a plasmid and using various carbon sources and in the presence or absence of inhibitors, 3e and 3f. […]
(B) PmSiaT is again expressed from a plasmid in the E. coli strain JW3193 ΔNanT, where the native sialic acid transporter (NanT) is deleted. The strain grows normally when in media with glucose (black line). There is no growth in the absence of any carbon source (grey line). In the presence of sialic acid at 0.5 mM the strain grows to an OD of ~0.5 (red line), showing that the transporter is functional. […]
substrates. […]

| Structure (SMILES) | effect on growth on sialic acid | growth with inhibitor as only carbon source |
| --- | --- | --- |
| CC(=O)NC1C(OCc2cc(F)cc(F)c2)CC(O)(C(=O)O)OC1C(O)C(O)CO (stereo not shown) [Compound 3e] | no effect on growth; also recorded: neither inhibitor seemed to alter bacterial growth | no growth |
| CC(=O)NC1C(OCc2cc(Br)cc(Br)c2)CC(O)(C(=O)O)OC1C(O)C(O)CO (stereo not shown) [Compound 3f] | no effect on growth; also recorded: neither inhibitor seemed to alter bacterial growth | no growth |
